Measurements: patent EP3382005A2, “EX VIVO MODEL FOR NEURODEGENERATIVE DISEASES” (Neuro-Bio Ltd, priority 2017, dated 2018)
Square brackets hold non-standard residues; d marks the D form. Peptide text beside a SMILES is read from it. Phe(4-COOH) = N[C@@H](Cc1ccc(C(=O)O)cc1)C(=O)O; 2Nal = N[C@@H](Cc1ccc2ccccc2c1)C(=O)O; cisHyp = O=C(O)[C@@H]1C[C@H](O)CN1

Experiments:
[1] = molecular target: T1, alpha7 nicotinic receptor (Rattus norvegicus, UniProt Q05941); test: Calcium influx test in PC12 cells; format: cell-based; settings: compound alone, higher doses 1 µM to 10 µM
T1 construct: endogenous in cells; host or cells: PC12 cells
T1 sequence (Q05941 23-502): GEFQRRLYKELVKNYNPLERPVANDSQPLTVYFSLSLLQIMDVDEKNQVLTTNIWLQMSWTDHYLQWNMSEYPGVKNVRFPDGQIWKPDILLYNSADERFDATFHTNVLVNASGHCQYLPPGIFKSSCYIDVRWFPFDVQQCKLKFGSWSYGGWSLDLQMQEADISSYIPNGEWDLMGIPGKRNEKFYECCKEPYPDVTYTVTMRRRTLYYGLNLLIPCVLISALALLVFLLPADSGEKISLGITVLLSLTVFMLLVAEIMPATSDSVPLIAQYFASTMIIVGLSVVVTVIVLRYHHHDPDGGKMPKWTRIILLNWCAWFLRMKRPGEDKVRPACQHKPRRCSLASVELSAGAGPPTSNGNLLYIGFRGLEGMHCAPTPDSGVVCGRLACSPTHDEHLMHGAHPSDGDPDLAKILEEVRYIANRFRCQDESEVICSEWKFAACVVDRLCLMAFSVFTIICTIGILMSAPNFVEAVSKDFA

[2] = system: PC12 cells; test: Cell viability test

For `CC(=O)N[C@@H](Cc1ccc2ccccc2c1)C(=O)N[C@@H](Cc1ccc(C(=O)O)cc1)C(=O)N1C[C@@H](O)C[C@H]1C(N)=O` [Tri01, 4-((S)-2-((S)-2-acetamido-3-(naphthalen-2-yl)propanamido)-3-((2S,4S)-2-carbamoyl-4-hydroxypyrrolidin-1-yl)-3-oxopropyl)benzoate] (Ac-[2Nal]-[Phe(4-COOH)]-[cisHyp]-NH2), the “calcium influx by the specific alpha7 agonist PNU282987” value [1] was “inactive”, the PC12 cell viability ([2]; compound alone, 0.1µM to 10µM) was “toxic in a concentration-dependent manner” and the PC12 cell viability ([2]; in the presence of T30 1µM) was “potentiates the toxicity induced by T30”.
